Test [1] relates to lung cancer cell lines (NCI-H1975, NCI-H2444, NCI-H1650) and melanoma cell lines (SK-MEL28 and A375). As to the kind of experiment: Viability assay (PrestoBlue), MAPK-driven cancer cell lines. Type of test: cell-based. The note with it: all MAPK-driven cancer cell lines, 96 hours treatment. The procedure: Cell viability was determined by Prestoblue and presented as percent of vehicle. Three independent biological replicates were used to calculate the average. […] Two-sided t-test, **P<0.01 for corresponding comparisons.
The NCI-H1650 lung cancer cell line containing heterozygous deletion in EGFR (delE746-A750) was treated with two different siRNAs to INTS11, or control non-targeting siRNAs, and cellular proliferation was measured using 5-ethynyl-2′-deoxyuridine (EdU), a sensitive and quantitative measure of cellular growth. […] SK-MEL28 also contains a homozygous EGFR mutation (P753S).
(§1) The cells were plated 5000 per well in 96-well black plates with a clear bottom and maintained under normal conditions over night before the drug treatment. The cell viability was measured 4 days after treatment using PrestoBlue (Invitrogen cat No A13261). GraphPad Prism software was used to generate dose response curves and calculate IC50 values. Each experiment was repeated at least three times.

For test [2], the system named is ovarian cancer cell lines (A2780, OVCAR10, PEO1, PEO4). Description: Viability assay (PrestoBlue), ovarian cancer cells. Type of test: cell-based. On the procedure:
Cell viability was determined by Prestoblue and presented as percent of vehicle. Three independent biological replicates were used to calculate the average. Two-sided t-test, **P<0.01 for corresponding comparisons.
Therefore, ovarian cancer cells were used to assess the effectiveness of targeting Integrator in cancers without activating mutations in the MAPK pathway. Phendione was compared with the conventional chemotherapeutic drug, cisplatin, a DNA crosslinking agent, which is frequently used in the treatment of the ovarian cancer. The effectiveness of INTS11 depletion in reducing the proliferation of PEO4 ovarian cancer cells was first measured (FIGS. 11, 12A, and 12B). Next, four ovarian cancer cell lines were treated with phendione or cisplatin.
as §1

Consider `O=C1C(=O)c2cccnc2-c2ncccc21` [phendione, 1,10-phenanthroline-5,6-dione], for which, in test [1], the “IC50 of viability compared with MAPK pathway inhibitors” value is on record as “IC50s less than or equal to that of MAPK pathway inhibitors”. For the same compound, the “responsiveness of cisplatin-resistant ovarian cancer cells” value in test [2] (A2780 and OVCAR10, known resistance to cisplatin) is listed as “sensitive to phendione”. Also, the “sensitivity of cellular viability” value in test [2] (all four ovarian cancer lines, 96 hours treatment) is on record as “exquisite sensitivity”.

The values above are taken from patent US20190358220A1, “INTEGRATOR INHIBITORS AND METHODS FOR THEIR USE” (UNIVERSITY OF MIAMI, priority 2017, published 2019).
